The source of these data is BindingDB's records for PubMed 9190866 (Smithkline Beecham Pharmaceuticals, 1997).

The term Ki denotes the dissociation constant of the complex between target and ligand, obtained from inhibition or displacement.

Where a SMILES comes first, the peptide text is derived from it. [ ]: non-standard residue; d: D form. NMeF = CN[C@@H](Cc1ccccc1)C(=O)O

One assay addresses T1, Substance-K receptor (Homo sapiens, UniProt P21452).
T1 sequence (P21452 whole entry): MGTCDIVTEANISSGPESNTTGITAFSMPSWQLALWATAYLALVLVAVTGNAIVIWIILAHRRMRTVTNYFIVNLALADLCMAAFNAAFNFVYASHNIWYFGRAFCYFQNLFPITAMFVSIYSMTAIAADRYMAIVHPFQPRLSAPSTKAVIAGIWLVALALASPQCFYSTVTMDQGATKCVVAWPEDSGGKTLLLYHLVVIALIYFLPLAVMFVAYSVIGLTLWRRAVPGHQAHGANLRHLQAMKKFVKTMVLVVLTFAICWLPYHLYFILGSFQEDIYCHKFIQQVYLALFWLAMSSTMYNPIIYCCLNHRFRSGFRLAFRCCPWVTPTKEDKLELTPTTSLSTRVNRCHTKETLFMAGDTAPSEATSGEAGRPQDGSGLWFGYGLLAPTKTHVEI

The target of a further assay is T2, Neuromedin-K receptor (Homo sapiens, UniProt P29371).
T2 sequence (P29371 whole entry): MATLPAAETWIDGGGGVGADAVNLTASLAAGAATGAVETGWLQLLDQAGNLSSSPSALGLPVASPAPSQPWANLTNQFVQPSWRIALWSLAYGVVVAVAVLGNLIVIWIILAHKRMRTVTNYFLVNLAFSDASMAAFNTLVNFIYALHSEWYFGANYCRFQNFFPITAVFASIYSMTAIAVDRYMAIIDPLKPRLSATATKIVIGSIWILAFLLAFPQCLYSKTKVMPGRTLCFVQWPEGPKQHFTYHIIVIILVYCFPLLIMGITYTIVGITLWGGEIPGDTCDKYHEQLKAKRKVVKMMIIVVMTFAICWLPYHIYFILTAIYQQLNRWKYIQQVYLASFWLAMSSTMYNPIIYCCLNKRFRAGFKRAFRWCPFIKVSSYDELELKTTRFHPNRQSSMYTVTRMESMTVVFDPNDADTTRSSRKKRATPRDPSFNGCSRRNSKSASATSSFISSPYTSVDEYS

Another assay concerns the target Substance-P receptor (Homo sapiens, UniProt P25103).

Sequence of Substance-P receptor (P25103 whole entry): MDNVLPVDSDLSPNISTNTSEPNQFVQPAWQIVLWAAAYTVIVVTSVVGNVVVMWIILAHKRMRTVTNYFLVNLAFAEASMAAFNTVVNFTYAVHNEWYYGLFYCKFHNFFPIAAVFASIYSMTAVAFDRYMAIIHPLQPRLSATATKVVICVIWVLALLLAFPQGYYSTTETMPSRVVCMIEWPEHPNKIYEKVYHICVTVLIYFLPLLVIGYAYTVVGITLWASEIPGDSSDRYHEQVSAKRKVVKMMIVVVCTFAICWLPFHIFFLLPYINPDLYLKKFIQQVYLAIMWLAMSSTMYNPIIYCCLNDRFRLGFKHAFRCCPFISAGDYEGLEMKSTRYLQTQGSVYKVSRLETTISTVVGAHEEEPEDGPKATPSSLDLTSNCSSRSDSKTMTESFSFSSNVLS

Consider `COc1ccccc1CN[C@H]1CCCN[C@H]1c1ccccc1` [(+/-)(2-Methoxy-benzyl)-(2-phenyl-piperidin-3-yl)-amine], for which the inhibition constant (Ki) on Substance-K receptor and at Neuromedin-K receptor was greater than 10000 nM each time.

Take `CSCC[C@H](NC(=O)[C@H](CC(C)C)NC(=O)CNC(=O)[C@H](Cc1ccccc1)N(C)C(=O)[C@H](Cc1ccccc1)NC(=O)[C@H](Cc1ccccc1)NC(=O)[C@H](CC(=O)O)NC(=O)[C@H](Cc1cnc[nH]1)NC(=O)[C@H](CCSC)NC(=O)[C@@H](N)CC(=O)O)C(N)=O` [NKB [MePhe7]] (H-DMHDFF[NMeF]GLM-NH2): the Ki at Substance-P receptor was greater than 10000 nM; at Neuromedin-K receptor it was 0.31 nM.

For `CSCC[C@H](NC(=O)[C@H](CC(C)C)NC(=O)CNC(=O)[C@@H](NC(=O)[C@H](Cc1ccccc1)NC(=O)[C@H](Cc1ccccc1)NC(=O)[C@H](CC(=O)O)NC(=O)[C@H](Cc1c[nH]cn1)NC(=O)[C@H](CCSC)NC(=O)[C@@H](N)CC(=O)O)C(C)C)C(N)=O` [NSC_5311312], the Ki at Substance-K receptor worked out at 16.5 nM.

As for `CC(=O)NC1(c2ccccc2)CCN(CCC(CN(C)C(=O)c2ccccc2)c2ccc(Cl)c(Cl)c2)CC1` (stereo not drawn) [SR 48968], the values for the Ki on Substance-P receptor, at Substance-K receptor and at Neuromedin-K receptor were 454 nM, 0.23 nM and 707 nM, respectively.
